The values below come from PMC10222686, “Synthesis and Molecular Docking Studies of Alkoxy- and Imidazole-Substituted Xanthones as α-Amylase and α-Glucosidase Inhibitors” (Molecules, 2023).

Some results are limits rather than exact numbers.

As usually defined, the inhibition is how much of the control response was suppressed. In general, IC50 refers to the concentration that inhibits the measured activity by half. In general, melting point refers to the temperature of the solid-liquid transition. The term Ki denotes a measure of affinity in units of concentration, obtained from inhibition or displacement.

Data set [1] addresses T1, α-amylase (Sus scrofa, UniProt P00690).
T1 construct: purchased Sigma-Aldrich; host or cells: porcine pancreas
T1 sequence (P00690 16-511): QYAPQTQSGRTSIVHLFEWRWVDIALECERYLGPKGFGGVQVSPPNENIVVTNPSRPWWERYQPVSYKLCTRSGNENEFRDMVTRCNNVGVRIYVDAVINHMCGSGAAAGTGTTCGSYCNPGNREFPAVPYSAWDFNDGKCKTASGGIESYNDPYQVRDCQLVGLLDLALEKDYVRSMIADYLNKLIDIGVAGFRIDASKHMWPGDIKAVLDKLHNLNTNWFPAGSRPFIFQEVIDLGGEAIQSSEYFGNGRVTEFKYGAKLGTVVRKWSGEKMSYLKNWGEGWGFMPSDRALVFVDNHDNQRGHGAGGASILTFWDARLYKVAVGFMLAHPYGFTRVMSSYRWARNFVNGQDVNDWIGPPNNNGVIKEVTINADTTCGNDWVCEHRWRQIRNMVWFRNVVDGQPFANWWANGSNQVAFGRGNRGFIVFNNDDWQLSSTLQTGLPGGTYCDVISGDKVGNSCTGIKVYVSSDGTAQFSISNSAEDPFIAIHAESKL
The experiment in a line: α-Amylase inhibition assay (starch/DNS).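 On all read-outs here: reducing sugar measured by DNS colour at 540 nm, inhibition relative to enzyme reaction lacking test compound, blank without enzyme subtracted for background.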 Type of data set: biochemical, porcine. The note with it: mean ± SD, n = 4; for inhibition at 100 µM: NI = no inhibition; for IC50: compounds precipitate at 200 µM.
Method: α-Amylase inhibitory activity was quantified according to the method developed by Chokki et al., with some modifications [65]. […] Finally, 100 µL of 3,5-dinitrosalicylic acid (DNS) was added and heated at 100 °C for 20 min, and absorbance was then read at 540 nm in a microplate reader (Epoch, BioTek®). The reaction system without any test compound was used as the control, and the system without α-amylase served as a blank for correcting background absorbance. The percentage of α-amylase inhibition was calculated for each sample with Equation (2):(2) % inhibition=Control absorbance−sample absorbance/Control absorbance×100
(§2) All measurements were performed in quadruplicate and the values are expressed as the mean ± standard deviation.

Data set [2] in a line: DPPH radical scavenging assay. Conditions: mean ± SD, n = 4. How it is done:
The scavenging of free radicals by the synthesized compounds was assessed based on the previously reported DPPH radical assay, with slight modifications. The reaction mixture consisted of 50 µL of compound in DMSO at various concentrations (from 2.5 mM to 0.2 mM) and 150 µL of DPPH solution at 133.33 µM in absolute ethanol. The reaction components were added at a ratio of 1:3 (v/v). The mixture was incubated at 37 °C for 30 min before absorbance was read at 517 nm using a microplate reader (Epoch, BioTek®). Butylhydroxytoulene (BHT) served as the positive control. Scavenging capacity (%) is expressed as the percentage decrease in DPPH. SC% = [(Acontrol − Atest)/Acontrol] × 100 where Acontrol is absorbance of the DPPH solution (control) and Atest is the absorbance of the solution of DPPH and one of the compounds.
A general note: Loss of DPPH colour is used to gauge radical scavenging.

Data set [3] deals with α-glucosidase. Put plainly: α-Glucosidase inhibition assay (p-NPG substrate). Type of data set: biochemical, Saccharomyces cerevisiae. The note with it: mean ± SD, n = 4.
Method: The inhibitory activity of the compounds on α-glucosidase inhibition was quantified according to the method described by Salehi et al., with slight modifications [64]. A reaction was prepared by mixing 20 µL α-glucosidase solution (0.5 unit/mL), 120 µL 0.1 M phosphate buffer (pH 6.9), and 10 µL of the samples at concentrations from 400 µM to 4.0 µM. The solution was incubated in a 96-well microplate at 37 °C for 15 min. The enzymatic reaction was initiated by adding 20 µL of 5 mM p-NPG solution to 0.1 M phosphate buffer (pH 6.9), followed by incubation at 37 °C for 15 min. The reaction was stopped by adding 80 µL of 0.2 M sodium carbonate solution, and absorbance was read at 405 nm in a microplate reader (Epoch®, BioTek Instrument, Winooski, EUA). The reaction system without any test compounds was used as control, whereas the system without α-glucosidase served as blank for correcting background absorbance. The rate of α-glucosidase inhibition exerted by each sample was calculated with Equation (1):(1) % inhibition=Control absorbance−sample absorbance/Control absorbance×100
as §2
Data set [4] relates to α-glucosidase. The experiment in a line: Enzymatic kinetic study on α-glucosidase (Lineweaver–Burk). Type of data set: biochemical, Saccharomyces cerevisiae. Conditions: for Type of inhibition of α-glucosidase: Lineweaver–Burk plots; for Ki: p-NPG 0.5–5.0 mM, nonlinear regression. How it is done:
The X-axis values represent the reciprocal for the α-glucosidase substrate, p-nitrophenyl-α-D-glucopyranoside (p-NPG), while for the α-amylase substrate they represent starch, thus being 1/(starch). The Y-axis values are the reciprocal of the reaction velocity (Vo), thus being 1/Vo.
(§1) To explore the type of enzyme inhibition, kinetic studies were carried out with α-glucosidase and α-amylase using a methodology such as that described in the inhibitory activity assays. The alkoxy-substituted xanthones were evaluated at four different concentrations according to their IC50. Various concentrations of substrates were used for each of the enzymes in the range of 0.5–5.0 mM for p-NPG in α-glucosidase and 0.1–1.0% for α-amylase. The type of inhibition for each test compound was determined by utilizing double reciprocal plots. Inhibition constants (KI) were calculated from substrate versus reaction rate curves using nonlinear regression of the enzyme inhibition kinetic function.

The target of data set [5] is T1, α-amylase. Put plainly: Enzymatic kinetic study on α-amylase (Lineweaver–Burk). Conditions: for Type of inhibition of α-amylase: Lineweaver–Burk plots; for Ki: starch 0.1–1.0%, nonlinear regression. Type of data set: biochemical, porcine. How it is done:
These KI values indicate that 6c has greater affinity for the enzyme.
as §1

The target in data set [6] is α-Glucosidase. Conditions: Figure 1; reference not given; cited from earlier work.

As to `COc1cc2oc3ccccc3c(=O)c2cc1OCC(=O)c1ccc(Cl)cc1` [Compound 6c, 2-(2-(4-Chlorophenyl)-2-oxoethoxy)-3-methoxy-9H-xanthen-9-one], the melting point lay within 175 to 176 °C. On α-amylase [1], this compound displayed an inhibition at 100 µM of 64.8 ± 0.15% and an IC50 of 76.7 ± 0.03 µM. Further, in data set [2], the “% DPPH Scavenging Activity (2.5 mM)” value was 8.7 ± 0.67 ^G %. Besides, in the data set on α-glucosidase [3], the “α-Glucosidase Inhibition (%) at 400 µM” value was determined as 92.6 ± 0.11% and inhibition was half-maximal at 16 ± 0.03 µM (IC50). Moreover, in the data set on α-glucosidase [4], the “Type of inhibition of α-glucosidase” value is reported as “mixed mode” and affinity was put at a Ki of 21.5 µM. Also, at α-amylase [5], the “Type of inhibition of α-amylase” value is “competitive type of inhibitor” and the Ki amounted to 63.2 µM.
For the compound `COc1cc2oc3ccccc3c(=O)c2cc1OCCCCn1ccnc1-c1ccc(Cl)cc1` [Compound 10c, 2-(4-(2-(4-Chlorophenyl)-1H-imidazol-1-yl)butoxy)-3-methoxy-9H-xanthen-9-one], at α-amylase [1], testing at 100 µM gave an inhibition of 99.5 ± 0.1% and it took 5.4 ± 0.07 µM to reach half-maximal inhibition (IC50). In data set [2], the “% DPPH Scavenging Activity (2.5 mM)” value was 11.6 ± 1.54 ^F,G %. Further, in the data set with α-glucosidase [3], the “α-Glucosidase Inhibition (%) at 400 µM” value is recorded as 95.1 ± 0.15% and the midpoint of inhibition, the IC50, lay at 232.7 ± 0.11 µM. In addition, in the data set with α-glucosidase [4], the “Type of inhibition of α-glucosidase” value was “mixed mode” and the Ki came out at 139 µM. For the same compound, at α-amylase [5], the “Type of inhibition of α-amylase” value is reported as “mixed-type inhibitor” and affinity was put at a Ki of 2.2 µM.
For the compound `C=CCc1c(OCCCCBr)c(OC)cc2oc3ccccc3c(=O)c12` [Compound 9b, 1-Allyl-2-(4-bromobutoxy)-3-methoxy-9H-xanthen-9-one], at α-amylase [1], at 100 µM the inhibition was 3.87 ± 0.11% and the IC50 is above 200 µM. Further, the “% DPPH Scavenging Activity (2.5 mM)” value in data set [2] is 17.6 ± 1.17 ^D %. Also, in the data set with α-glucosidase [3], the “α-Glucosidase Inhibition (%) at 400 µM” value is on record as 96.3 ± 0.2% and the IC50 was 4 ± 0.007 µM. In the data set with α-glucosidase [4], the “Type of inhibition of α-glucosidase” value was “mixed mode” and the Ki came to 1.25 µM.
Turning to `O=c1c2c(O)cc(O)cc2oc2cc(O)c(-c3c(O)ccc4ccc(O)cc34)c(O)c12` [Dihydroxynaphtalenyl-xanthone], the IC50 at α-Glucosidase [6] is 47.6 µM.
As to `Clc1ccc(-c2nc(-c3ccccc3)n3c2-c2[nH]c4ccccc4c2CC3)cc1` [Carbazole-imidazole], the IC50 at α-Glucosidase [6] was 81 µM.
As for `COc1c(O)cc2oc3cc(O)c(CC=C(C)C)c(O)c3c(=O)c2c1CC=C(C)C` [α-Mangostin, α-mangostin], the IC50 on α-Glucosidase [6] is 5 µM.
Take `Cc1cc(C)n(-c2ccc(-n3c(-c4ccccc4)nc(-c4ccccc4)c3-c3ccccc3)cc2)n1` [Imidazole-pyrazole]: the IC50 on α-Glucosidase [6] was 105 µM.
Compound `C=CCc1c(OCC(O)Cn2ccnc2-c2ccccc2)c(OC)cc2oc3ccccc3c(=O)c12` (centres unmarked) [Compound 12e, 1-Allyl-2-(2-hydroxy-3-(2-phenyl-1H-imidazol-1-yl)propoxy)-3-methoxy-9H-xanthen-9-one] registered a melting point of 187 to 189 °C. In addition, at α-amylase [1], the inhibition at 100 µM is 2.4 ± 0.15% and the IC50 was above 200 µM. The “% DPPH Scavenging Activity (2.5 mM)” value in data set [2] is given as 17.6 ± 1.14 ^D %. Moreover, in the data set on α-glucosidase [3], the “α-Glucosidase Inhibition (%) at 400 µM” value was 96.6 ± 1.45% and 104.9 ± 0.01 µM corresponded to half-maximal inhibition (IC50).
As for `C=CCc1c(OCC2CO2)c(OC)cc2oc3ccccc3c(=O)c12` (centres unmarked) [Compound 11b, 1-Allyl-3-methoxy-2-(oxiran-2-ylmethoxy)-9H-xanthen-9-one], the melting point lay in the range of 115 to 116 °C. At α-amylase [1], this compound displayed an inhibition at 100 µM of 7.8 ± 0.5% and an IC50 above 200 µM. The “% DPPH Scavenging Activity (2.5 mM)” value in data set [2] is reported as 18.4 ± 1.43 ^D %. Further, in the data set with α-glucosidase [3], the “α-Glucosidase Inhibition (%) at 400 µM” value is 99.7 ± 0.29% and the IC50 amounted to 120 ± 0.03 µM.
With `C=CCc1c(OCCCCn2ccnc2-c2ccc(Cl)cc2)c(OC)cc2oc3ccccc3c(=O)c12` [Compound 10f, 1-Allyl-2-(4-(2-(4-chlorophenyl)-1H-imidazol-1-yl)butoxy)-3-methoxy-9H-xanthen-9-one], the melting point fell in the range of 90 to 92 °C. On α-amylase [1], at 100 µM the inhibition was 93.3 ± 0.12% and the midpoint of inhibition, the IC50, lay at 8.7 ± 0.06 µM. For the same compound, the “% DPPH Scavenging Activity (2.5 mM)” value in data set [2] was 11.2 ± 1.02 ^F,G %. Moreover, in the data set with α-glucosidase [3], the “α-Glucosidase Inhibition (%) at 400 µM” value was 99.4 ± 0.51% and half-maximal inhibition (IC50) was put at 145.2 ± 0.17 µM.
As to `COc1cc2oc3ccccc3c(=O)c2cc1OCC(O)Cn1ccnc1` (centres unmarked) [Compound 12a, 2-(2-Hydroxy-3-(1H-imidazol-1-yl)propoxy)-3-methoxy-9H-xanthen-9-one], the melting point lay within 146 to 148 °C. The inhibition at 100 µM at α-amylase [1] is below 0%. Also, the “% DPPH Scavenging Activity (2.5 mM)” value in data set [2] is 1.1 ± 0.01 ^I %. Moreover, in the data set with α-glucosidase [3], the “α-Glucosidase Inhibition (%) at 400 µM” value is recorded as 1.87 ± 0.47% and the IC50 was above 400 µM.
With `COc1cc2oc3ccccc3c(=O)c2cc1OCC(O)Cn1ccnc1-c1ccc(Cl)cc1` (centres unmarked) [Compound 12c, 2-(3-(2-(4-Chlorophenyl)-1H-imidazol-1-yl)-2-hydroxypropoxy)-3-methoxy-9H-xanthen-9-one], the melting point is 235 °C (dec.). For the same compound, on α-amylase [1], the inhibition at 100 µM amounted to 3.9 ± 0.55% and the IC50 was above 200 µM. In addition, the “% DPPH Scavenging Activity (2.5 mM)” value in data set [2] is 19.0 ± 0.22 ^D %. Further, in the data set on α-glucosidase [3], the “α-Glucosidase Inhibition (%) at 400 µM” value turned out to be 97.5 ± 1.78% and the IC50 came out at 210.9 ± 0.33 µM.
